Results reported in US20130096170A1 (priority 2011, published 2013).
Like-named read-outs stand apart in the source and are kept apart here.

Key:
[1] = human, in vivo
clinical = conditions: human, in vivo
[2] = Dose Level 1, LD 0.25/CD 0.2 μg/kg/hr, full evaluable population
[3] = Dose Level 2, LD 0.50/CD 0.4 μg/kg/hr, full evaluable population
[4] = Dose Level 3, LD 1.00/CD 0.7 μg/kg/hr, full evaluable population
[5] = Dose Level 4, LD 1.00/CD 2.00 μg/kg/hr, full evaluable population
[6] = Table 30 key summary (mean), Dose Level 1, LD 0.25/CD 0.2 μg/kg/hr, full evaluable population
[7] = Table 30 key summary (mean), Dose Level 2, LD 0.50/CD 0.4 μg/kg/hr, full evaluable population
[8] = Table 30 key summary (mean), Dose Level 3, LD 1.00/CD 0.7 μg/kg/hr, full evaluable population
[9] = Table 30 key summary (mean), Dose Level 4, LD 1.00/CD 2.00 μg/kg/hr, full evaluable population

## Cc1cccc([C@H](C)c2cnc[nH]2)c1C [dexmedetomidine]
[2]
  Css Mean: 402.026 µg/mL
  Css Median: 197.991 µg/mL
  λz Mean: 0.469 h⁻¹
  λz Median: 0.446 h⁻¹
[3]
  Css Mean: 539.848 µg/mL
  Css Median: 513.902 µg/mL
  λz Mean: 0.408 h⁻¹
  λz Median: 0.411 h⁻¹
[4]
  Css Mean: 1347.284 µg/mL
  Css Median: 947.907 µg/mL
  λz Mean: 0.369 h⁻¹
  λz Median: 0.386 h⁻¹
[5]
  Css Mean: 2827.144 µg/mL
  Css Median: 2665.409 µg/mL
  λz Mean: 0.360 h⁻¹
  λz Median: 0.326 h⁻¹
[6]
  Css: 0.402 ng/mL
  λz: 0.5 h⁻¹
[7]
  Css: 0.5398 ng/mL
  λz: 0.4 h⁻¹
[8]
  Css: 1.3473 ng/mL
  λz: 0.4 h⁻¹
[9]
  Css: 2.8271 ng/mL
  λz: 0.4 h⁻¹
human, in vivo
  Css: 5.74355e+09 ng/mL
  dose proportionality of AUC and Cmax: dose proportionality and a linear relationship
[1]
  CL, predicted: 47.8 L/h
  Exponent of power relationship between Q and age, Population Mean: −0.509
  IIV in Q: 117 % CV
  Proportional shift in allometric exponent for Vc for neonates, Population Mean: 0.513
  Q, model value: 68.21 L/h
  Slope of linear age effect on Vp, Population Mean: −1.43 L/y
  Vc, model value: 6.22 L
  Vp, model value: 13.21 L
  interindividual variability in CL, Vc, and Vp: 35-55 % CV
  terminal elimination (β) half-life: 1.8 h
  unexplained interindividual variability (IIV) in Q: 163 % CV
  volume of distribution, predicted: 114.6 L
clinical; after the start of the maintenance infusion
  Tmax: 40.8 min
clinical; before the end of the loading dose
  Tmax: ~4.8 min
clinical; clearance
  clearance: ~95 mL/min
clinical; half-life
  half-life: ~120 min
clinical; t1/2, Mean
  half-life: 117 min
clinical; weight adjusted CL
  clearance: ~10 mL/min/kg
clinical; weight adjusted Vd
  Vd: ~1.6 L/kg
